Columns and labels:
[1] = system: 3T3-L1-derived adipocytes; assay: Lipid homeostasis in 3T3-L1-derived adipocytes (TG level, Oil Red O staining); assay type: cell-based
Method: 5 NBA-ZG-2991 sustainably engages with FIH and regulates the expression of FIH-dependent HIF target gene EGLN3 in Hep3B cells. (A) The CETSA assay was carried out with Hep3B cells grown in the presence of NBA-ZG-2291 (50 μM) for 12–48 h after 30 min of light activation (365 nm, 16 W). The intensity of the bands for grayscale analysis was referenced to the starting temperature (37 °C). α-Actinin was the sample loading control. n = 2; mean ± SD. […] (E) Correlation heatmap of the NBA-ZG-2291-treated group and the siFIH group by RNA-sequencing analysis. […] The relative fold change with respect to DMSO treated sample is shown (with normalization to HPRT gene levels). Mean ± SEM; n = 3. (G) TG level of NBA-ZG-2291-treated 3T3-L1-derived adipocytes. Mean ± SEM; n = 3. (H) Representative Oil Red O-stained images of the control, ZG-2291-treated, and NBA-ZG-2291-treated 3T3-L1-derived adipocytes. Scale Bar, 30 μm. P values were analyzed by two-way ANOVA comparing with the vehicle/control group (*, P < 0.05; **, P < 0.01; ***, P < 0.001, ****, P < 0.0001). See Methods (Quantitative PCR Analysis of Gene Expression) for assay details. […]

[2] = target: T1, PHD2 (Homo sapiens, UniProt Q9GZT9); assay: CETSA in Hep3B cells detecting PHD2 engagement; assay type: cell-based; conditions: 50 μM, 12-48 h after 30 min light activation
T1 construct: endogenous in cells; host or cells: Hep3B (SCSP-5045)
T1 sequence (Q9GZT9 whole entry): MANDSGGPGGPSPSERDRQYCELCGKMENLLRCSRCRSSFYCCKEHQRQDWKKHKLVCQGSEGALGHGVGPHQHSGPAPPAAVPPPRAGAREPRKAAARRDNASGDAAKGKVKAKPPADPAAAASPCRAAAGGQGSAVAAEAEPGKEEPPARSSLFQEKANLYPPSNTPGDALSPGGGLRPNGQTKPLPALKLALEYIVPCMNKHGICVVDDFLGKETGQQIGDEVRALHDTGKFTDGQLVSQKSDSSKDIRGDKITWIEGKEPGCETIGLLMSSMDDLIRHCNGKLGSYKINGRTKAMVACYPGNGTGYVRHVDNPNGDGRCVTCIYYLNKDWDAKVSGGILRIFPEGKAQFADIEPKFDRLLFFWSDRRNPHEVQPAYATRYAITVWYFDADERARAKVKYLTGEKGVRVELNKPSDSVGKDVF
Method: To investigate potential cellular target engagement of NBA-ZG-2291 with FIH, we performed a time-dependent cellular thermal shift assay (CETSA) using Hep3B cells. The results imply that, after 30 min of light activation (365 nm, 16 W), NBA-ZG-2291 effectively stabilizes FIH with a ΔT m of about 9 °C after incubation for 12–48 h (Figure A), indicating sustained engagement with FIH. […] We also performed Western blotting to examine the protein levels of both HIF-1α and HIF-2α in control and NBA-ZG-2291-treated Hep3B cells.
Figure S11. The CETSA assay detecting PHD2 engagement was carried out with Hep3B cells grown in the presence of NBA-ZG-2291 (50 µM) for 12-48 h after 30 minutes of light activation (365 nm, 16W). The intensity of the bands for grayscale analysis was referenced to the starting temperature (37 °C). α-Actinin was the sample loading control. n = 2; mean ± SD. The uncropped blot is […]
(1 picture or pasted object on this page, not shown here)
3.4 Intact protein mass spectrometry […]
The process of customizing non-standard residues (NBA-ZG-2291 modified Lys106) in the amber14sb force field involved the following steps: First, the molecular structure of NBA-ZG-2291 was obtained and its topology was generated. […] The molecular charges were then calculated using the RESP method, and the topology file was updated with these charge values. […]

For `O=C(O)CNC(=O)c1ncc(-c2cc(-c3ccc(CO)c([N+](=O)[O-])c3)no2)cc1O` [NBA-ZG-2291], the “Cellular triglyceride (TG) levels” value [1] was “significantly improved cellular triglyceride levels”, the “Lipid droplet accumulation (Oil Red O staining)” value ([1]; compared with control cells) was “reduced lipid droplet accumulation” and the “Effect on stability of PHD2 in cells (CETSA)” value [2] was “not observed to affect the stability of PHD2”.

— article PMC12123601, “Light-Induced, Lysine-Targeting Irreversible Covalent Inhibition of the Human Oxygen Sensing Hydroxylase Factor Inhibiting HIF (FIH)” (Journal of the American Chemical Society, 2025)
